Measured values published in patent US20240239755A1, “SUBSTITUTED PYRIDAZINONES, SALTS OR N-OXIDES THEREOF AND THEIR USE AS HERBICIDALLY ACTIVE SUBSTANCES” (Bayer Aktiengesellschaft, priority 2021, published 2024).

Key:
Format in all cases: in vivo
[1] = system: Abutilon theophrasti (ABUTH); assay: Herbicidal pre-emergence action, 1280 g/ha (Table A1); conditions: visual grading after ca. 3 weeks vs untreated controls
Description: (§1) Seeds of mono- and dicotyledonous weed plants were sown in plastic pots (double sowings with one species of mono- and one species of dicotyledonous weed plants per pot), in sandy loam, and covered with soil. The compounds according to the invention, formulated in the form of wettable powders (WP) or as emulsifiable concentrates (EC), were applied to the surface of the covering soil as an aqueous suspension or as an emulsion, with the addition of 0.5% of an additive, at an application rate of 600 litres of water per hectare (converted). Following treatment, the pots were placed in a greenhouse and kept under optimum growth conditions for the test plants. The visual grading of the damage to the test plants was carried out after ca. 3 weeks in comparison to untreated controls (herbicidal effect in percent (%): 100% effect=plants have died, 0% effect=as control plants). Tables A1 to A11 below, show the effects of selected compounds of the general formula (I) according to Table 1 on various harmful plants and an application rate corresponding to 1280 g/ha obtained by the experimental procedure mentioned above.

Veronica persica (VERPE) = assay: Herbicidal post-emergence action, 1280 g/ha, VERPE; conditions: visual grading vs untreated controls
Description: (§2) Seeds of mono- and dicotyledonous weed plants were sown in plastic pots (double sowings with one species of mono- and one species of dicotyledonous weed plants per pot), in sandy loam, covered with soil and grown under controlled growth conditions. 2 to 3 weeks after sowing, the test plants were sprayed in the single-leaf stage. The compounds according to the invention, formulated in the form of wettable powders (WP) or as emulsifiable concentrates (EC), were sprayed onto the green plant parts as an aqueous suspension or as an emulsion, with the addition of 0.5% of an additive, at an application rate of 600 litres of water per hectare (converted). The test plants were placed in the greenhouse for ca. 3 weeks under optimum growth conditions, and then the effect of the preparations was assessed visually in comparison with untreated controls (herbicidal effect in percent (%): 100% effect=plants have died, 0% effect=as control plants).
(§3) Tables B1 to B11 below, show the effects of selected compounds of the general formula (I) according to Table 1 on various harmful plants using an application rate corresponding to 1280 g/ha obtained by the experimental procedure mentioned above.

Lolium rigidum (LOLRI) [2] = assay: Herbicidal post-emergence action, 1280 g/ha (Table B5); conditions: visual assessment after ca. 3 weeks vs untreated controls
Description: as §2, with “plants). Tables B1 to B11 below, show the effects of selected compounds of the general formula (I) according to Table 1 on various harmful plants using an application rate corresponding to 1280 g/ha obtained by the experimental procedure mentioned above.” for “plants).”

[3] = system: Amaranthus retroflexus (AMARE); assay: Herbicidal post-emergence action, 1280 g/ha, AMARE; conditions: visual grading vs untreated controls
Description: as §2, §3

[4] = system: Abutilon theophrasti (ABUTH); assay: Herbicidal post-emergence action, 1280 g/ha (Table B1); conditions: visual assessment after ca. 3 weeks vs untreated controls
Description: as §2, with “plants). Tables B1 to B11 below, show the effects of selected compounds of the general formula (I) according to Table 1 on various harmful plants using an application rate corresponding to 1280 g/ha obtained by the experimental procedure mentioned above.” for “plants).”

Stellaria media (STEME) [5] = assay: Herbicidal pre-emergence action, 1280 g/ha (Table A9); conditions: visual grading after ca. 3 weeks vs untreated controls
Description: as §1

[6] = system: Amaranthus retroflexus (AMARE); assay: Herbicidal post-emergence action, 320 g/ha, AMARE; conditions: visual grading after ca. 3 weeks
Description: as §2
(§4) Tables D1 to D8 below, show the effects of selected compounds of the general formula (I) according to Table 1 on various harmful plants using an application rate corresponding to 320 g/ha obtained by the experimental procedure mentioned above.

Stellaria media (STEME) [7] = assay: Herbicidal post-emergence action, 320 g/ha, STEME; conditions: visual grading after ca. 3 weeks
Description: as §2, §4

Lolium rigidum (LOLRI) [8] = assay: Herbicidal pre-emergence action, 1280 g/ha (Table A5); conditions: visual grading after ca. 3 weeks vs untreated controls
Description: as §1

[9] = system: Matricaria inodora (MATIN); assay: Herbicidal post-emergence action, 1280 g/ha (Table B6); conditions: visual assessment after ca. 3 weeks vs untreated controls
Description: as §2, with “plants). Tables B1 to B11 below, show the effects of selected compounds of the general formula (I) according to Table 1 on various harmful plants using an application rate corresponding to 1280 g/ha obtained by the experimental procedure mentioned above.” for “plants).”

Stellaria media (STEME) [10] = assay: Herbicidal post-emergence action, 1280 g/ha (Table B9); conditions: visual assessment after ca. 3 weeks vs untreated controls
Description: as §2, with “plants). Tables B1 to B11 below, show the effects of selected compounds of the general formula (I) according to Table 1 on various harmful plants using an application rate corresponding to 1280 g/ha obtained by the experimental procedure mentioned above.” for “plants).”

[11] = system: Abutilon theophrasti (ABUTH); assay: Herbicidal post-emergence action, 320 g/ha, ABUTH; conditions: visual grading after ca. 3 weeks
Description: as §2, §4

[12] = system: Matricaria inodora (MATIN); assay: Herbicidal pre-emergence action, 1280 g/ha (Table A6); conditions: visual grading after ca. 3 weeks vs untreated controls
Description: as §1

Stellaria media (STEME) [13] = assay: Herbicidal pre-emergence action, 320 g/ha, STEME; conditions: visual grading after ca. 3 weeks
Description: as §1, with “plants).” for “plants). Tables A1 to A11 below, show the effects of selected compounds of the general formula (I) according to Table 1 on various harmful plants and an application rate corresponding to 1280 g/ha obtained by the experimental procedure mentioned above.”
Tables C1 to C6 below, show the effects of selected compounds of the general formula (I) according to Table 1 on various harmful plants using an application rate corresponding to 320 g/ha obtained by the experimental procedure mentioned above.

[14] = system: Amaranthus retroflexus (AMARE); assay: Herbicidal pre-emergence action, 1280 g/ha (Table A11); conditions: visual grading after ca. 3 weeks vs untreated controls
Description: as §1

Kochia scoparia (KCHSC) [15] = assay: Herbicidal post-emergence action, 1280 g/ha (Table B4); conditions: visual assessment after ca. 3 weeks vs untreated controls
Description: as §2, with “plants). Tables B1 to B11 below, show the effects of selected compounds of the general formula (I) according to Table 1 on various harmful plants using an application rate corresponding to 1280 g/ha obtained by the experimental procedure mentioned above.” for “plants).”

Kochia scoparia (KCHSC) [16] = assay: Herbicidal post-emergence action, 320 g/ha, KCHSC; conditions: visual grading after ca. 3 weeks
Description: as §2, §4

Lolium rigidum (LOLRI) [17] = assay: Herbicidal pre-emergence action, 320 g/ha (Table C2); conditions: visual grading after ca. 3 weeks vs untreated controls
Description: as §1, with “Tables C1” for “Tables A1”, “to C6” for “to A11”, “plants using” for “plants and”, “to 320” for “to 1280”

[18] = system: Matricaria inodora (MATIN); assay: Herbicidal post-emergence action, 320 g/ha, MATIN; conditions: visual grading after ca. 3 weeks
Description: as §2, §4

Poa annua (POAAN) = assay: Herbicidal pre-emergence action, 1280 g/ha (Table A7); conditions: visual grading after ca. 3 weeks vs untreated controls
Description: as §1

Kochia scoparia (KCHSC) [19] = assay: Herbicidal pre-emergence action, 1280 g/ha (Table A4); conditions: visual grading after ca. 3 weeks vs untreated controls
Description: as §1

| SMILES | herbicidal effect VERPE (Veronica persica (VERPE)) [%] | herbicidal effect AMARE [3] [%] | herbicidal effect ABUTH [4] [%] | herbicidal effect STEME (Stellaria media (STEME) [5]) [%] | herbicidal effect STEME (Stellaria media (STEME) [7]) [%] | herbicidal effect LOLRI (Lolium rigidum (LOLRI) [8]) [%] | herbicidal effect MATIN [9] [%] | herbicidal effect STEME (Stellaria media (STEME) [10]) [%] | herbicidal effect MATIN [12] [%] | herbicidal effect STEME (Stellaria media (STEME) [13]) [%] | herbicidal effect AMARE [14] [%] | herbicidal effect KCHSC (Kochia scoparia (KCHSC) [15]) [%] | herbicidal effect KCHSC (Kochia scoparia (KCHSC) [16]) [%] | further results |
| --- | --- | --- | --- | --- | --- | --- | --- | --- | --- | --- | --- | --- | --- | --- |
| CCOC(=O)Oc1c(C)nn(C)c(=O)c1Oc1cc(Cl)ccc1C1CC1 [Example I-070] | 90 | 100 | 100 | 90 | 90 | 100 | 90 | 100 | 100 | 90 |  |  |  | herbicidal effect ABUTH [1]: 100%; herbicidal effect LOLRI (Lolium rigidum (LOLRI) [2]): 100%; herbicidal effect AMARE [6]: 90%; herbicidal effect ABUTH [11]: 100% |
| CCOC(=O)Oc1c(C)nn(C)c(=O)c1Oc1cc(Cl)cc(Cl)c1Cl [Example I-097] |  | 90 |  | 100 | 90 | 100 |  | 90 |  | 90 | 100 |  |  | herbicidal effect ABUTH [1]: 100% |
| Cc1nn(C)c(=O)c(Oc2ccc(Cl)cc2Cl)c1O [Example I-019, 4-(2,4-dichlorophenoxy)-5-hydroxy-2,6-dimethyl-pyridazin-3-one] | 90 | 90 | 90 | 100 |  | 90 | 90 | 90 |  |  |  | 90 | 90 | herbicidal effect AMARE [6]: 90%; herbicidal effect ABUTH [11]: 90% |
| Cc1nn(C)c(=O)c(Oc2cc(Cl)cc(Cl)c2Cl)c1O [Example I-096] |  | 90 |  | 100 | 90 | 90 |  | 100 | 100 | 100 | 90 |  |  | herbicidal effect LOLRI (Lolium rigidum (LOLRI) [17]): 90% |
| Cc1nn(C)c(=O)c(Oc2cc(F)c(F)cc2Br)c1OC(=O)C(C)C [Example I-094] | 90 | 100 | 90 |  |  |  | 90 |  | 100 |  | 100 | 90 |  | herbicidal effect MATIN [18]: 90% |
| Cc1nn(C)c(=O)c(Oc2ccccc2F)c1O [Example I-021] |  |  |  |  |  |  |  |  |  |  |  |  |  | herbicidal effect POAAN (Poa annua (POAAN)): 90% |
| CCOC(=O)Oc1c(C)nn(C)c(=O)c1Oc1ccccc1OC(F)F [Example I-074] | 90 | 100 | 100 | 90 |  | 90 | 90 | 100 |  |  |  | 90 | 90 | herbicidal effect LOLRI (Lolium rigidum (LOLRI) [2]): 90% |
| CCOC(=O)Oc1c(C)nn(C)c(=O)c1Oc1cc(F)cc(F)c1Br [Example I-098] | 90 | 100 | 90 | 100 | 90 |  | 90 | 90 | 100 |  | 100 | 90 | 90 |  |
| Cc1nn(C)c(=O)c(Oc2ccc(Cl)cc2Cl)c1OC(=O)C(C)(C)C [Example I-049] | 90 | 100 | 90 | 100 |  |  | 90 |  |  |  |  | 90 | 90 | herbicidal effect KCHSC (Kochia scoparia (KCHSC) [19]): 90% |
